Measured values taken from publication PMC3087488 (Journal of Oncology, 2011).

Assay: adverse events in patients (CTCAE version 3.0)
Type: in vivo, human
Details: for Any motesanib-related AE, Grade 3 / Any motesanib-related AE, Grade 4 / Any motesanib-related AE, Grade 5 / Motesanib-related AE: Anorexia / Motesanib-related AE: Constipation / Motesanib-related AE: Deep vein thrombosis / Motesanib-related AE: Dehydration / Motesanib-related AE: Dermatitis acneiform / Motesanib-related AE: Diarrhea / Motesanib-related AE: Erythema / Motesanib-related AE: Fatigue / Motesanib-related AE: Hypertension / Motesanib-related AE: Nausea / Motesanib-related AE: Pulmonary embolism / Motesanib-related AE: Rash / Motesanib-related AE: Vomiting / Motesanib-related Arterial thromboembolic events (all grades) / Motesanib-related Arterial thrombosis, Grade 3 / Motesanib-related Arterial thrombosis, Grade 4 / Motesanib-related Cerebrovascular accident, Grade 2 / Motesanib-related Deep vein thrombosis, Grade 2 / Motesanib-related Deep vein thrombosis, Grade 3 / Motesanib-related Gallbladder disorder, Grade 1 / Motesanib-related Hemorrhagic events, Grade 1 / Motesanib-related Jugular vein thrombosis, Grade 2 / Motesanib-related Neutropenia, Grade 3 / Motesanib-related Pulmonary embolism, Grade 4 / Motesanib-related Pulmonary embolism, Grade 5 / Motesanib-related Venous thromboembolic events (all grades) / Patients with any motesanib-related AE: gemcitabine/cisplatin
Method: Adverse events were recorded throughout the study and graded (including DLTs) according to the Common Terminology Criteria for Adverse Events, version 3.0. Samples for assessment of hematology, blood chemistry, urinalysis, and thyroid function were collected on day 1 of each cycle.

[1] = 33 patients who received motesanib, all cohorts
[2] = listed after the 125-mg QD cohort
[3] = motesanib 50 mg QD (n = 8) + panitumumab
[4] = motesanib 75 mg BID (n = 2) + panitumumab
[5] = motesanib 75 mg QD (n = 6) + panitumumab

CC1(C)CNc2cc(NC(=O)c3cccnc3NCc3ccncc3)ccc21 [motesanib]
One: grade 3 cholelithiasis (100 mg QD cohort)
3 patients: serious motesanib-related pulmonary embolism [2]
20%: patients with grade 4 or 5 pulmonary embolism (all cohorts, eight patients (one grade 5))
2 (25) n (%): Any motesanib-related AE, Grade 3 [3] | Motesanib-related AE: Anorexia [3] | Motesanib-related AE: Vomiting [3] | Motesanib-related Venous thromboembolic events (all grades) [3]
0 (0) n (%): Any motesanib-related AE, Grade 4 [3] | Motesanib-related AE: Constipation [3] | Motesanib-related AE: Dehydration [3] | Motesanib-related AE: Rash [3] | Motesanib-related Arterial thrombosis, Grade 3 [3] | Motesanib-related Arterial thrombosis, Grade 4 [3] | Motesanib-related Deep vein thrombosis, Grade 3 [3] | Motesanib-related Gallbladder disorder, Grade 1 [3] | Motesanib-related Jugular vein thrombosis, Grade 2 [3] | Motesanib-related Pulmonary embolism, Grade 4 [3] | Any motesanib-related AE, Grade 5 [4] | Motesanib-related AE: Anorexia [4] | Motesanib-related AE: Constipation [4] | Motesanib-related AE: Deep vein thrombosis [4] | Motesanib-related AE: Dehydration [4] | Motesanib-related AE: Dermatitis acneiform [4] | Motesanib-related AE: Erythema [4] | Motesanib-related AE: Fatigue [4] | Motesanib-related AE: Nausea [4] | Motesanib-related AE: Pulmonary embolism [4] | Motesanib-related AE: Vomiting [4] | Motesanib-related Arterial thrombosis, Grade 3 [4] | Motesanib-related Cerebrovascular accident, Grade 2 [4] | Motesanib-related Deep vein thrombosis, Grade 2 [4] | Motesanib-related Deep vein thrombosis, Grade 3 [4] | Motesanib-related Gallbladder disorder, Grade 1 [4] | Motesanib-related Hemorrhagic events, Grade 1 [4] | Motesanib-related Jugular vein thrombosis, Grade 2 [4] | Motesanib-related Neutropenia, Grade 3 [4] | Motesanib-related Pulmonary embolism, Grade 4 [4] | Motesanib-related Pulmonary embolism, Grade 5 [4] | Motesanib-related Venous thromboembolic events (all grades) [4]
2%: patients with grade 2 jugular vein thrombosis (all cohorts, one patient)
one: grade 1 jaundice (125 mg QD cohort)
15%: patients with motesanib-related serious adverse event with a worst grade of 4 (all cohorts, six patients)
24%: patients with motesanib-related venous thromboembolic events (all cohorts, 10 patients)
14 patients: motesanib-related fatigue [1]
10%: patients with deep vein thrombosis (grade 2 or 3) (all cohorts, four patients)
13 patients: patients who discontinued motesanib because of adverse events (all cohorts)
7%: patients with motesanib-related arterial thromboembolic events (all cohorts, three patients)
34%: patients with serious adverse events considered related to motesanib (all cohorts, fourteen patients)
8 patients: motesanib-related anorexia [1] | motesanib-related pulmonary embolism [1] | motesanib-related vomiting [1] | patients with serious motesanib-related adverse events (125-mg QD cohort)
1 (50) n (%): Any motesanib-related AE, Grade 3 [4] | Any motesanib-related AE, Grade 4 [4] | Motesanib-related AE: Diarrhea [4] | Motesanib-related AE: Hypertension [4] | Motesanib-related Arterial thromboembolic events (all grades) [4] | Motesanib-related Arterial thrombosis, Grade 4 [4]
15 patients: motesanib-related hypertension [1] | motesanib-related nausea [1]
1 (13) n (%): Any motesanib-related AE, Grade 5 [3] | Motesanib-related AE: Deep vein thrombosis [3] | Motesanib-related AE: Dermatitis acneiform [3] | Motesanib-related AE: Diarrhea [3] | Motesanib-related AE: Erythema [3] | Motesanib-related AE: Pulmonary embolism [3] | Motesanib-related Arterial thromboembolic events (all grades) [3] | Motesanib-related Cerebrovascular accident, Grade 2 [3] | Motesanib-related Deep vein thrombosis, Grade 2 [3] | Motesanib-related Hemorrhagic events, Grade 1 [3] | Motesanib-related Neutropenia, Grade 3 [3] | Motesanib-related Pulmonary embolism, Grade 5 [3]
4 (50) n (%): Motesanib-related AE: Fatigue [3] | Motesanib-related AE: Nausea [3]
10 patients: motesanib-related diarrhea [1]
2 (100) n (%): Motesanib-related AE: Rash [4] | Patients with any motesanib-related AE [4]
6 (75) n (%): Patients with any motesanib-related AE [3]
1 patients: serious motesanib-related arterial thrombosis [2] | serious motesanib-related asthenia [2] | serious motesanib-related atrial fibrillation [2] | serious motesanib-related confusional state [2] | serious motesanib-related headache [2] | serious motesanib-related hyponatremia [2] | serious motesanib-related sudden death [2]
did not occur: hypothyroidism (all cohorts) | cholecystitis (any tested dose level)
2 (33) n (%): Any motesanib-related AE, Grade 3 [5] | Any motesanib-related AE, Grade 4 [5]
3 (38) n (%): Motesanib-related AE: Hypertension [3]
2 patients: serious motesanib-related deep vein thrombosis [2] | serious motesanib-related dehydration [2] | serious motesanib-related diarrhea [2]
